Measurements as given in paper PMC9959553, “Promising Antifungal Molecules against Mucormycosis Agents Identified from Pandemic Response Box®: In Vitro and In Silico Analyses” (Journal of Fungi, 2023).

tested on: R. oryzae UCP1295; experiment: Screening of the Pandemic Response Box library at 5 µM; format: cell-based, Rhizopus oryzae; conditions: 48 h, Table S1, mean of the four values
Procedure, shortened: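 Compounds at 5 μM in RPMI 1640 with 2% glucose and MOPS (0.165 mol/L, pH 7.2), with conidia at 2 × 10^5/mL, incubated 48 h at 37 °C in 5% CO2. Growth read by OD at 600 nm; hits defined as ≥60% inhibition. Posaconazole (5 μM) and 1% DMSO as controls.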

In order of rising “% of growth inhibition, Mean” value:
1. CN(C/C=C/C#CC(C)(C)C)Cc1cccc2ccccc12 [MMV1634359]  -42.5%
2. Cc1cc(O)c2c(c1)C(=O)c1c(I)c(O)c(I)c(O)c1C2=O [MMV1581545]  -41.8%
3. O=C(Cc1ccccc1F)Nc1nc2ccccc2[nH]1 [MMV1578576]  -39.7%
4. O=[N+]([O-])/C(Br)=C/c1ccc(Br)o1 [MMV1645051]  -39.6%
5. COC(=O)Nc1nc2ccc([S+]([O-])c3ccccc3)cc2[nH]1 (stereo not drawn) [MMV002565]  -39.5%
6. CCc1nc2ccc(Cl)cn2c1C(=O)NCc1ccc(N2CCC(c3ccc(OC(F)(F)F)cc3)CC2)cc1 [MMV687696]  -33.4%
7. CC(Cc1ccccc1)C(=O)Nc1ccc(Cl)cc1C(=O)O (stereo not drawn) [MMV1579781]  -32.3%
8. CCC(C)(C)c1ccc(CC(C)CN2C[C@@H](C)O[C@@H](C)C2)cc1.Cl (stereo partly drawn) [MMV1634358]  -26.0%
9. NS(=O)(=O)c1ccc(NC(=O)NC(c2ccccc2)c2ccccc2)cc1 [MMV1579776]  -24.2%
10. CCC(C)NCC(O)Cn1c2ccc(Cl)cc2c2cc(Cl)ccc21 (stereo not drawn) [MMV1578570]  -22.7%
11. C[C@@H]1O[C@@H]1P(=O)(O)O [MMV002354]  -22.5%
12. O=C(NC(=O)N1CCCc2ccccc21)c1ccc(Cl)cc1Cl [MMV1782218]  -21.0%
13. COc1nc2ccc(Br)cc2cc1[C@@H](c1ccccc1)[C@@](O)(CCN(C)C)c1cccc2ccccc12 [MMV689758]  -19.9%
14. C=CCc1cc(Cc2cnc(N)nc2N)cc(OC)c1O [MMV1580849]  -19.9%
15. O=S(=O)(Nc1ccccc1)c1ccc(NC(=S)Nc2ccccc2)cc1 [MMV1578562]  -19.4%
16. CCOC(=O)/C=C/[C@H](C[C@@H]1CCNC1=O)NC(=O)[C@@H](CC(=O)[C@@H](NC(=O)c1cc(C)on1)C(C)C)Cc1ccc(F)cc1 [MMV1580491]  -18.6%
17. O=C1c2cccc3cccc(c23)C(=O)N1CC1CO1 (stereo not drawn) [MMV1634360]  -18.1%
18. O=C(CC1Sc2ncnn2C1=O)Nc1ccc(Br)cc1 (stereo not drawn) [MMV214956]  -17.9%
19. Cn1cc(NC(=O)c2cc(NC(=O)c3ccc(/C=C/c4cnc5ccccc5c4)cc3)cn2C)cc1C(=O)NCCN1CCOCC1 [MMV1634391]  -17.4%
20. CCCCCc1ccc(C(=O)NCCn2cc(CCCCCc3c[nH]c(N)n3)nn2)cc1.Cl [MMV1580847]  -16.8%
21. Cc1onc(-c2ccccc2)c1-c1ccc(S(N)(=O)=O)cc1 [MMV002260]  -15.5%
22. CC(C)n1cnc2c(NCc3ccccc3)nc(NCc3ccccc3)nc21 [MMV1579780]  -15.2%
23. CCC[C@H](NC(=O)[C@@H]1[C@H]2CCC[C@H]2CN1C(=O)[C@@H](NC(=O)[C@@H](NC(=O)c1cnccn1)C1CCCCC1)C(C)(C)C)C(=O)C(=O)NC1CC1 [MMV1580494]  -15.1%
24. NCC(=O)Nc1ccc(-n2nc(C(F)(F)F)cc2-c2ccc3c(ccc4ccccc43)c2)cc1 [MMV1578560]  -14.6%
25. O=C1NC(=O)C(Br)=C1Br [MMV1578554]  -14.5%
26. NC[C@H]1O[C@H](O[C@H]2[C@H](O)[C@@H](O[C@H]3O[C@H](CO)[C@@H](O)[C@H](N)[C@H]3O)[C@H](N)C[C@@H]2N)[C@H](N)C[C@@H]1O [MMV002459]  -14.1%
27. COC(=O)Nc1nc2cc(Sc3ccccc3)ccc2[nH]1 [MMV003143]  -14.1%
28. O=C(N[C@H](Cc1cccc2ccccc12)C(=O)NCCc1c[nH]cn1)C1Cc2ccccc2C1 [MMV1782109]  -14.0%
29. O=c1oc2ccc(Br)cc2cc1CSc1ncc[nH]1 [MMV1782105]  -13.4%
30. Cc1c(OCC(F)(F)F)ccnc1C[S+]([O-])c1nc2ccccc2[nH]1 (stereo not drawn) [MMV001438]  -13.2%
31. Oc1cc(-c2cccc3ccccc23)[nH]n1 [MMV422940]  -11.7%
32. COc1cc(Cc2cc(N)nc(N)n2)cc(OC)c1OC [MMV1579846]  -11.6%
33. CC1(C)CC(NC(=O)C(=O)Nc2ccc(Cl)cc2)CC(C)(C)N1 [MMV1580501]  -11.4%
34. Nc1nc2c(ncn2[C@@H]2O[C@H](CO)[C@@H](O)[C@H]2F)c(=O)[nH]1 [MMV1633677]  -10.0%
35. CCN1CCN(Cc2nc3ccc([N+](=O)[O-])cc3c(=O)n2-c2ccccc2F)CC1 [MMV275100]  -8.8%
36. C[C@H]1COc2c(N3CCN(C)CC3)c(F)cc3c(=O)c(C(=O)O)cn1c23 [MMV687798]  -8.6%
37. CC1=C(/C=C/C(C)=C/C=C/C(C)=C/C(=O)Nc2ccc(O)cc2)C(C)(C)CCC1 [MMV001793]  -8.1%
38. O=c1cc(Nc2ccc3ccccc3c2)[nH]c(=O)[nH]1 [MMV1581546]  -6.0%
39. O=C(NC12CC3CC(CC(C3)C1)C2)c1cc2ccccc2[nH]1 [MMV1578577]  -4.8%
40. O=S(=O)(Nc1ccc(O)cc1)c1cccc2cccnc12 [MMV251679]  -4.7%
41. FC(F)(F)Oc1ccc(Nc2ccc3cccc(Cl)c3n2)cc1 [MMV1581032]  -3.7%
42. COc1ccc(C)cc1NC(=O)c1ccc(S(=O)(=O)N2CCCCC2)cc1 [MMV1578579]  -3.3%
43. Cc1ccc(NC(=O)c2ccc(CN3CCN(C)CC3)cc2)cc1Nc1nccc(-c2cccnc2)n1 [MMV009948]  -3.0%
44. CC(C)N=c1cc2n(-c3ccc(Cl)cc3)c3ccccc3nc-2cc1Nc1ccc(Cl)cc1 [MMV687800]  -1.7%
45. COc1ccc(C2CNC(=O)C2)cc1OC1CCCC1 (stereo not drawn) [MMV003738]  -1.4%
46. N#Cc1c(F)c(Cl)c(NCc2ccccc2)c(C#N)c1F [MMV1582496]  -1.3%
47. CC(=O)N1c2ccccc2NC2=C(C(=O)CC(C)(C)C2)C1c1ccc(OCc2ccccc2)cc1 (stereo not drawn) [MMV1580503]  -1.0%
48. CCc1nc2ccccn2c1C(=O)NCc1ccccc1 [MMV1663457]  -0.4%
49. CCOC(=O)N1CCN(c2ccc(Cl)cc2)CC1 [MMV1578898]  0.3%
50. O=[N+]([O-])c1cn2c(n1)OC[C@@H](OCc1ccc(OC(F)(F)F)cc1)C2 [MMV688755]  1.3%
51. CCC(CC)[C@H](NC(C)=O)[C@@H]1[C@H](O)[C@@H](C(=O)O)C[C@H]1NC(=N)N [MMV1593511]  1.4%
52. CN1CCN(Cc2ccc(-c3cnc4[nH]cc(-c5ccc6[nH]ccc6c5)c4c3)cc2)CC1 [MMV1580482]  1.5%
53. N[C@H](CCC(=O)N[C@@H](Cc1c[nH]c2ccccc12)C(=O)O)C(=O)O [MMV1581033]  2.8%
54. CS(=O)(=O)c1ccc(Oc2ccc(Cl)cc2)cc1 [MMV1634404]  4.1%
55. CCOc1ccc(/C=N/NC(=O)C2CC2c2ccc(C(C)(C)C)cc2)cc1OCC (stereo not drawn) [MMV1634398]  4.7%
56. CSc1ccc2c(c1)C(N1CCN(C)CC1)Cc1ccccc1S2 (stereo not drawn) [MMV002505]  8.0%
57. O=C(O)/C=C/C=C/c1cccc(Oc2cc(Cl)cc(Cl)c2)c1 [MMV1633963]  12.3%
